Where two headings read alike, the source gives them in different places.
Columns and labels:
[1] = test system: cytochrome c; assay type: cell-based, mouse; settings: for cyt c (composite Z-score): normalized score vs mock-treated (DMSO) wells
[2] = test system: mtOXPHOS transcripts; assay type: cell-based, mouse; settings: for mitoOX (composite Z-score): normalized score vs mock-treated (DMSO) wells
[3] = test system: C2C12 myotubes; settings: for Viability (composite Z-score): normalized score vs mock-treated (DMSO) wells
[4] = test system: cellular dehydrogenase activity; settings: for MTT (composite Z-score): normalized score vs mock-treated (DMSO) wells
[5] = test system: mitochondrial membrane potential; assay type: cell-based, mouse; settings: for ΔΨm (composite Z-score): normalized score vs mock-treated (DMSO) wells
[6] = test system: nuOXPHOS transcripts; assay type: cell-based, mouse; settings: for nucOX (composite Z-score): normalized score vs mock-treated (DMSO) wells
[7] = test system: reactive oxygen species; assay type: cell-based, mouse; settings: for ROS (composite Z-score): normalized score vs mock-treated (DMSO) wells
[8] = test system: OXPHOS gene expression; assay type: cell-based, mouse; settings: for GE-HTS (composite Z-score): normalized score vs mock-treated (DMSO) wells
[9] = 20 μM, composite Z-score vs DMSO
[10] = composite Z-score vs DMSO, Conc 20 μM
[11] = composite Z-score vs mock-treated (DMSO) wells, Conc 20 μM
[12] = composite Z-score vs DMSO wells, Conc 20 μM
[13] = normalized composite Z-score vs mock-treated (DMSO) wells, Conc 20 μM
[14] = composite Z-score vs mock-treated (DMSO) wells, concentration of each compound in μM

cytochrome c, sequence (P62897 whole entry): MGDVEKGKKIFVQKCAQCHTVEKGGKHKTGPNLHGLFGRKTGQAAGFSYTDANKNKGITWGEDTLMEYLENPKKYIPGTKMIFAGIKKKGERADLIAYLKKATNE

CC(C)(C)NCC(O)c1ccccc1Cl (stereo not drawn) [tulobuterol]
cyt c [1, 9]: 0.326 | mitoOX [2, 9]: 0.258 | Viability [3, 9]: −0.239 | MTT [4, 9]: −0.706 | ΔΨm [5, 9]: −1.186 | nucOX [6, 9]: −0.257 | ROS [7, 9]: 0.569 | GE-HTS [8, 9]: −0.101

C[C@H](CCC(=O)O)[C@H]1CC[C@H]2[C@@H]3CC[C@@H]4CCCC[C@]4(C)[C@H]3CC[C@]12C [ursocholanic acid]
cyt c [1, 10]: 1.303 | mitoOX [2, 10]: −0.657 | Viability [3, 10]: 0.050 | MTT [4, 10]: −0.246 | ΔΨm [5, 10]: −1.738 | nucOX [6, 10]: −0.946 | ROS [7, 10]: 0.978 | GE-HTS [8, 10]: −0.920

CCC(C)C(=O)O[C@@H]1C[C@@]2(C)[C@H](c3ccoc3)OC(=O)CC23OC2(C)O[C@]14[C@]1(C)[C@@H](CC(=O)OC)C5(C)CC1(O)[C@](O)(C5OC(=O)C1(C)OC1C)[C@@H](OC(C)=O)[C@]34O2 (stereo partly drawn) [utilin]
cyt c [1, 11]: −0.038 | mitoOX [2, 11]: −0.975 | Viability [3, 11]: 1.131 | MTT [4, 11]: −1.571 | ΔΨm [5, 11]: −0.122 | nucOX [6, 11]: −0.861 | ROS [7, 11]: 0.482 | GE-HTS [8, 11]: −0.939

COC(=O)/C(=C1/OC(=O)C(c2ccccc2)=C1O)c1ccccc1 [vulpinic acid]
cyt c [1, 9]: 1.037 | mitoOX [2, 9]: −0.792 | Viability [3, 9]: −1.120 | MTT [4, 9]: 0.403 | ΔΨm [5, 9]: −3.484 | nucOX [6, 9]: 0.168 | ROS [7, 9]: 1.407 | GE-HTS [8, 9]: −0.152

CC1(C)C=Cc2cc3ccc(=O)oc3cc2O1 [xanthyletin]
cyt c [1, 11]: −0.029 | mitoOX [2, 11]: 1.085 | Viability [3, 11]: −0.674 | MTT [4, 11]: −1.741 | ΔΨm [5, 11]: −0.220 | nucOX [6, 11]: 0.924 | ROS [7, 11]: 0.217 | GE-HTS [8, 11]: 1.029

COC(=O)[C@@H]1[C@H]2C[C@H]3c4[nH]c5ccccc5c4CCN3C[C@@H]2CC[C@@H]1O [yohimbine]
cyt c [1]: 0.699 | mitoOX [2]: −0.471 | Viability [3]: −0.860 | MTT [4]: −1.915 | ΔΨm [5]: −1.197 | nucOX [6]: 0.169 | ROS [7]: 0.159 | GE-HTS [8]: −0.041

CCCOc1ccccc1-c1nc2nn[nH]c2c(=O)[nH]1 [zaprinast]
cyt c [1, 12]: 0.226 | mitoOX [2, 12]: −0.234 | Viability [3, 12]: 0.602 | MTT [4, 12]: −1.175 | ΔΨm [5, 12]: −0.347 | nucOX [6, 12]: 0.220 | ROS [7, 12]: −0.482 | GE-HTS [8, 12]: 0.076

CC(C)(O)[C@H]1CC[C@]2(C)[C@H]3CC[C@@H]4[C@@]5(C)CCCC(C)(C)[C@@H]5[C@@H](O)C[C@@]4(C)[C@]3(C)CC[C@@H]12 [zeorin]
cyt c [1, 13]: 0.088 | mitoOX [2, 13]: 0.571 | Viability [3, 13]: 0.495 | MTT [4, 13]: −0.387 | ΔΨm [5, 13]: −0.941 | nucOX [6, 13]: 0.278 | ROS [7, 13]: 0.166 | GE-HTS [8, 13]: 0.381

(−)-asarinin
cyt c [1, 10]: 0.607 | mitoOX [2, 10]: −1.858 | Viability [3, 10]: −0.632 | MTT [4, 10]: −0.505 | ΔΨm [5, 10]: −0.439 | nucOX [6, 10]: −0.726 | ROS [7, 10]: −0.229 | GE-HTS [8, 10]: −1.167

avermectin B1
cyt c [1, 10]: 0.116 | mitoOX [2, 10]: 0.295 | Viability [3, 10]: 0.129 | MTT [4, 10]: −0.284 | ΔΨm [5, 10]: −0.336 | nucOX [6, 10]: 0.170 | ROS [7, 10]: 2.442 | GE-HTS [8, 10]: 0.198

avocatin A
cyt c [1, 14]: 0.849 | mitoOX [2, 14]: −1.140 | Viability [3, 14]: 0.133 | MTT [4, 14]: −0.249 | ΔΨm [5, 14]: −0.057 | nucOX [6, 14]: −1.066 | ROS [7, 14]: 0.404 | GE-HTS [8, 14]: −1.145

avocatin B
cyt c [1, 14]: 0.710 | mitoOX [2, 14]: −0.852 | Viability [3, 14]: −0.869 | MTT [4, 14]: −1.119 | ΔΨm [5, 14]: 0.024 | nucOX [6, 14]: −0.863 | ROS [7, 14]: 1.229 | GE-HTS [8, 14]: −0.935

beta-escin
cyt c (composite Z-score) ([1]; Conc 20 μM): −5.117 | mitoOX (composite Z-score) ([2]; Conc 20 μM): −0.745 | Viability (composite Z-score) ([3]; Conc 20 μM): −5.049 | MTT (composite Z-score) ([4]; Conc 20 μM): −5.088 | ΔΨm (composite Z-score) ([5]; Conc 20 μM): −3.416 | nucOX (composite Z-score) ([6]; Conc 20 μM): −0.883 | ROS (composite Z-score) ([7]; Conc 20 μM): −3.107 | GE-HTS (composite Z-score) ([8]; Conc 20 μM): −0.914

beta-sitosterol
cyt c [1, 10]: 0.061 | mitoOX [2, 10]: 0.218 | Viability [3, 10]: −0.768 | MTT [4, 10]: −1.974 | ΔΨm [5, 10]: −0.679 | nucOX [6, 10]: 0.046 | ROS [7, 10]: 0.049 | GE-HTS [8, 10]: 0.098

caryophyllene
cyt c (composite Z-score) ([1]; Conc 20 μM): −0.121 | mitoOX (composite Z-score) ([2]; Conc 20 μM): −0.100 | Viability (composite Z-score) ([3]; Conc 20 μM): −0.255 | MTT (composite Z-score) ([4]; Conc 20 μM): −0.525 | ΔΨm (composite Z-score) ([5]; Conc 20 μM): 1.045 | nucOX (composite Z-score) ([6]; Conc 20 μM): 0.216 | ROS (composite Z-score) ([7]; Conc 20 μM): 0.996 | GE-HTS (composite Z-score) ([8]; Conc 20 μM): 0.119

— patent publication US20090143279A1 (priority 2007, published 2009)
